The numbers were not newly measured in patent EP0495131B1, “AGENT FOR PREVENTING AND TREATING HEPATITIS” (priority 1990, dated 1992), which cites them from elsewhere.

Each structure is given as a SMILES string.

The data set has as its system hepatitis, especially B-type hepatitis. The note with it: percentage of patients in which antigen is converted into negative and antibody into positive; anti-virus agents for hepatitis.

Regarding `Nc1ncnc2c1ncn2[C@@H]1O[C@H](CO)[C@@H](O)[C@@H]1O` [Ara-A, adenine arabinoside], the “rate of the seroconversion (SC rate)” value is reported as 0-30%.
For the compound `Nc1nc2c(ncn2COCCO)c(=O)[nH]1` [acyclovir], the “rate of the seroconversion (SC rate)” value is recorded as “about 27%”.
